Assay results published in patent US20100317524A1, “Sulfonylureas” (Bayer CropScience AG, priority 2005, published 2010).

Key:
[1] = test system: weed plants such as Sinapis alba, Chrysanthemum segetum, Avena sativa, Stellaria media, Echinochloa crus-galli, Lolium multiflorum, Setaria viridis, Abutilon …; experiment: Pre-emergence effect on weeds (greenhouse pot test, visual scoring); assay type: in vivo; settings: applied pre-emergence at a rate of 0.3 kg or less of active substance per hectare; visual scoring after 3 to 4 weeks vs untreated controls
Description: Seeds or sections of rhizome from monocot and dicot weed plants were laid out in sandy loam soil in cardboard pots, and covered with soil. The compounds of the invention, formulated as wettable powders or emulsifiable concentrates, were then applied, in the form of aqueous suspensions or emulsions, at various dosages, onto the surface of the covering earth, at an application rate of 600 to 800 l of water per hectare (converted). Following the treatment, the pots were placed in a greenhouse and maintained under good growth conditions for the weeds. Visual scoring of the plant damage or emergence damage was made when the test plants had emerged, after a test time of 3 to 4 weeks, in comparison to untreated controls.

[2] = test system: weed plants such as Sinapis alba, Echinochloa crus-galli, Lolium multiflorum, Chrysanthemum segetum, Setaria viridis, Abutilon theophrasti, Amaranthus …; experiment: Post-emergence effect on weeds (greenhouse pot test, visual scoring); assay type: in vivo; settings: applied post-emergence (three-leaf stage) at a rate of 0.3 kg or less of active substance per hectare; visual scoring after about 3 to 4 weeks vs untreated controls
Description: Seeds or sections of rhizome from monocot and dicot broadleaf weeds were laid out in sandy loam soil in plastic pots, covered with earth, and cultivated in a greenhouse under good growth conditions. Three weeks after sowing, the test plants were treated at the three-leaf stage. The compounds of the invention, formulated as wettable powders or as emulsion concentrates, were sprayed in different dosages onto the green parts of the plants, at an application rate of 600 to 800 l of water per hectare (converted). After the test plants had stood in the greenhouse under optimum growth conditions for a period of about 3 to 4 weeks, the effect of the products was scored visually in comparison to untreated controls.

| SMILES | herbicidal action against weed plants, pre-emergence [1] | herbicidal action against weed plants, post-emergence [2] |
| --- | --- | --- |
| COc1cc(Cl)nc(NC(=O)NS(=O)(=O)c2c(I)cccc2OC(C)C)n1 [Compound 1.187] | very good herbicidal action | very good herbicidal action |
| COc1nc(NC(=O)NS(=O)(=O)c2c(I)cccc2OC(C)C)nc(OC)n1 [Compound 1.191] | very good herbicidal action | very good herbicidal action |
| CCCCOc1cccc(I)c1S(=O)(=O)NC(=O)Nc1nc(OC)cc(OC)n1 [Compound 1.192] | very good herbicidal action | very good herbicidal action |
| CCC(C)Oc1cccc(I)c1S(=O)(=O)NC(=O)Nc1nc(OC)cc(OC)n1 (stereo not shown) [Compound 1.196] | very good herbicidal action | very good herbicidal action |
| COc1cc(OC)nc(NC(=O)NS(=O)(=O)c2c(I)cccc2OCC(C)C)n1 [Compound 1.197] | very good herbicidal action | very good herbicidal action |
| COc1cc(OC)nc(NC(=O)NS(=O)(=O)c2c(I)cccc2OCC2CC2)n1 [Compound 1.229] | very good herbicidal action | very good herbicidal action |
| COc1nc(C)nc(NC(=O)NS(=O)(=O)c2c(I)cccc2OCC2CC2)n1 [Compound 1.233] | very good herbicidal action | very good herbicidal action |
| Cc1cc(C)nc(NC(=O)NS(=O)(=O)c2c(I)cccc2OCC2CC2)n1 [Compound 1.237] | very good herbicidal action | very good herbicidal action |
| COc1cc(Cl)nc(NC(=O)NS(=O)(=O)c2c(I)cccc2OCC2CC2)n1 [Compound 1.238] | very good herbicidal action | very good herbicidal action |
| COc1nc(NC(=O)NS(=O)(=O)c2c(I)cccc2OCC2CC2)nc(OC)n1 [Compound 1.242] | very good herbicidal action | very good herbicidal action |
| COc1cc(OC)nc(NC(=O)NS(=O)(=O)c2c(I)cccc2OC(F)(F)F)n1 [Compound 1.302] | very good herbicidal action | very good herbicidal action |
| COc1nc(C)nc(NC(=O)NS(=O)(=O)c2c(I)cccc2OC(F)(F)F)n1 [Compound 1.306] | very good herbicidal action | very good herbicidal action |
| Cc1cc(C)nc(NC(=O)NS(=O)(=O)c2c(I)cccc2OC(F)(F)F)n1 [Compound 1.310] | very good herbicidal action | very good herbicidal action |
| COc1cc(Cl)nc(NC(=O)NS(=O)(=O)c2c(I)cccc2OC(F)(F)F)n1 [Compound 1.311] | very good herbicidal action | very good herbicidal action |
| COc1nc(NC(=O)NS(=O)(=O)c2c(I)cccc2OC(F)(F)F)nc(OC)n1 [Compound 1.315] | very good herbicidal action | very good herbicidal action |
| COc1cc(OC)nc(NC(=O)NS(=O)(=O)c2c(I)cccc2OC(F)F)n1 [Compound 1.321] | very good herbicidal action | very good herbicidal action |
| COc1nc(C)nc(NC(=O)NS(=O)(=O)c2c(I)cccc2OC(F)F)n1 [Compound 1.325] | very good herbicidal action | very good herbicidal action |
| Cc1cc(C)nc(NC(=O)NS(=O)(=O)c2c(I)cccc2OC(F)F)n1 [Compound 1.329] | very good herbicidal action | very good herbicidal action |
| COc1cc(Cl)nc(NC(=O)NS(=O)(=O)c2c(I)cccc2OC(F)F)n1 [Compound 1.330] | very good herbicidal action | very good herbicidal action |

| SMILES | herbicidal action against weed plants, pre-emergence [1] | herbicidal action against weed plants, post-emergence [2] |
| --- | --- | --- |
| COc1nc(C)nc(NC(=O)NS(=O)(=O)c2c(I)cccc2OCC(F)(F)F)n1 [Compound 1.342] | very good herbicidal action | very good herbicidal action |
| Cc1cc(C)nc(NC(=O)NS(=O)(=O)c2c(I)cccc2OCC(F)(F)F)n1 [Compound 1.343] | very good herbicidal action | very good herbicidal action |
| COc1cc(Cl)nc(NC(=O)NS(=O)(=O)c2c(I)cccc2OCC(F)(F)F)n1 [Compound 1.344] | very good herbicidal action | very good herbicidal action |
| COc1nc(C)nc(NC(=O)NS(=O)(=O)c2c(I)cccc2OCC(F)F)n1 [Compound 1.352] | very good herbicidal action | very good herbicidal action |
| Cc1cc(C)nc(NC(=O)NS(=O)(=O)c2c(I)cccc2OCC(F)F)n1 [Compound 1.353] | very good herbicidal action | very good herbicidal action |
| COc1cc(Cl)nc(NC(=O)NS(=O)(=O)c2c(I)cccc2OCC(F)F)n1 [Compound 1.354] | very good herbicidal action | very good herbicidal action |
| COc1nc(NC(=O)NS(=O)(=O)c2c(I)cccc2OCC(F)F)nc(OC)n1 [Compound 1.355] | very good herbicidal action | very good herbicidal action |
| COc1cc(OC)nc(NC(=O)NS(=O)(=O)c2c(I)cccc2OC(C)C(F)(F)F)n1 (stereo not shown) [Compound 1.362] | very good herbicidal action | very good herbicidal action |
| COc1nc(C)nc(NC(=O)NS(=O)(=O)c2c(I)cccc2OC(C)C(F)(F)F)n1 (stereo not shown) [Compound 1.363] | very good herbicidal action | very good herbicidal action |
| Cc1cc(C)nc(NC(=O)NS(=O)(=O)c2c(I)cccc2OC(C)C(F)(F)F)n1 (stereo not shown) [Compound 1.364] | very good herbicidal action | very good herbicidal action |
| COc1cc(Cl)nc(NC(=O)NS(=O)(=O)c2c(I)cccc2OC(C)C(F)(F)F)n1 (stereo not shown) [Compound 1.365] | very good herbicidal action | very good herbicidal action |
| COc1nc(NC(=O)NS(=O)(=O)c2c(I)cccc2OC(C)C(F)(F)F)nc(OC)n1 (stereo not shown) [Compound 1.366] | very good herbicidal action | very good herbicidal action |
| COc1nc(C)nc(NC(=O)NS(=O)(=O)c2c(I)cccc2OCC(F)(F)C(F)(F)F)n1 [Compound 1.370] | very good herbicidal action | very good herbicidal action |
| Cc1cc(C)nc(NC(=O)NS(=O)(=O)c2c(I)cccc2OCC(F)(F)C(F)(F)F)n1 [Compound 1.371] | very good herbicidal action | very good herbicidal action |
| COc1cc(Cl)nc(NC(=O)NS(=O)(=O)c2c(I)cccc2OCC(F)(F)C(F)(F)F)n1 [Compound 1.372] | very good herbicidal action | very good herbicidal action |
| COc1nc(NC(=O)NS(=O)(=O)c2c(I)cccc2OCC(F)(F)C(F)(F)F)nc(OC)n1 [Compound 1.373] | very good herbicidal action | very good herbicidal action |
| COc1cc(OC)nc(NC(=O)NS(=O)(=O)c2c(I)cccc2SC)n1 [Compound 1.389] | very good herbicidal action | very good herbicidal action |
| COc1nc(C)nc(NC(=O)NS(=O)(=O)c2c(I)cccc2SC)n1 [Compound 1.390] | very good herbicidal action | very good herbicidal action |
| COc1cc(OC)nc(NC(=O)NS(=O)(=O)c2c(I)cccc2OS(C)(=O)=O)n1 [Compound 1.463] | very good herbicidal action | very good herbicidal action |
